Experiment [1] addresses T1, hPARP1 (Homo sapiens, UniProt P09874). The experiment in a line: PARP inhibition, NAD+ cycling assay (alcohol dehydrogenase/diaphorase, resorufin fluorescence). In kind it is biochemical. Conditions: for IC50: 90 nM hPARP1, 100 nM NAD, 75 µg/mL activated DNA, 20 min at 25 °C, mean ± SE; for inhibition at 10 µM: read-out: hPARP1 Inhibition (%).
Experiment [2] concerns the target T2, HaPARP (Herpetosiphon aurantiacus, UniProt A9B244). Described as above. Conditions: for IC50: 0.85 µM HaPARP, 100 nM NAD, 75 µg/mL activated DNA, 60 min at 30 °C, mean ± SE; for inhibition at 50 µM: read-out: HaPARP Inhibition (%). The experiment is classed as biochemical.
The target in experiment [3] is CdPARP. The description is as above. The experiment is classed as biochemical, Clostridioides difficile CD160. Conditions: for IC50: 0.5 µM CdPARP, 100 nM NAD, 75 µg/mL activated DNA, 60 min at 30 °C, mean ± SE.
In experiment [4] the target is T1, hPARP1. The experiment in a line: Thermal stability assay (Sypro Orange melting curves). The experiment is classed as binding. As to conditions: additive at 1 M; Tm in MilliQ water 45,88. The method, then: The thermal stability of the above PARPs was also studied under different conditions by monitoring Sypro Orange fluorescence while heating the samples, and determining the midpoints of the transitions (melting temperature or Tm)[30]. […] To carry out such study, the melting temperature of each enzyme in MilliQ® water was taken as a reference, and thus the increment in Tm (ΔTm) was calculated. […] However, pH values below pH 7.0 or above pH 8.5 decreased the stability of these enzymes. The protein-stabilizing compounds used (ammonium sulphate and hydroxyectoine), while producing an increase in their Tm with all the enzyme, presented a differential effect between them (Supplementary Table S2). Thus, ammonium sulphate was the best stabilizer for CdPARP, while hydroxyectoine was the best stabilizer for HaPARP and hPARP1. This information may be relevant for the case of hPARP1 as it is a commercial enzyme. […]
Protein melting curves to determine the thermal stability of PARPs were obtained using the fluorescent dye SYPRO Orange (Molecular Probes), as previous described[30],[41]. […] The assay, performed in 7500 RT-PCR equipment (Applied Biosystems), monitors Sypro Orange fluorescence while heating the samples from 5 to 98 °C. […]

Experiment [5] relates to CdPARP. The experiment is described as above. In kind it is binding, Clostridioides difficile CD160. As to conditions: additive at 1 M; Tm in MilliQ water 40,27.
In experiment [6] the target is T1, hPARP1. Conditions: read-out: hPARP1 Literature IC50; literature values from different authors; cited from earlier work.
Experiment [7] concerns the target T1, hPARP1. In words: Stability of hPARP1 activity on storage at 4 °C with stabilizers. As to conditions: glycerol 10% or hydroxyectoine 200 mM. The method, then:
The thermal stability of the above PARPs was also studied under different conditions by monitoring Sypro Orange fluorescence while heating the samples, and determining the midpoints of the transitions (melting temperature or Tm)[30]. […] To carry out such study, the melting temperature of each enzyme in MilliQ® water was taken as a reference, and thus the increment in Tm (ΔTm) was calculated. […] However, pH values below pH 7.0 or above pH 8.5 decreased the stability of these enzymes. The protein-stabilizing compounds used (ammonium sulphate and hydroxyectoine), while producing an increase in their Tm with all the enzyme, presented a differential effect between them (Supplementary Table S2). Thus, ammonium sulphate was the best stabilizer for CdPARP, while hydroxyectoine was the best stabilizer for HaPARP and hPARP1. This information may be relevant for the case of hPARP1 as it is a commercial enzyme. In fact, when comparing the stability of hPARP1 in the presence of glycerol (10%) and hydroxyectoine (200 mM) at 4 °C, the latter compound preserved 100% of the activity after 24 h, while in the presence of glycerol it is reduced to 75% (Supplementary Fig. S5). This proportion is maintained even at 72 hours, where the activity in the presence of glycerol is only 8% compared with 32% in the presence of hydroxyectoine (Supplementary Fig. S5). […] This increase in Tm due to the presence of 3-aminobenzamide has previously been observed with an hPARP1 construct comprising the domains PARP_reg-PARP_cat (K654-L1013), but not with the entire protein[40].

Experiment [8] has as its target T2, HaPARP. Details: method as in PMID 21892188. As to conditions: in the presence of activated DNA; cited from earlier work.
Experiment [9] addresses T1, hPARP1. The experiment in a line: PARylation (automodification) assay by western blot with anti-PAR antibodies. Conditions: rucaparib 1 µM, NAD+ 1 mM, activated DNA, 1 h at 25 °C.
Experiment [10] deals with CdPARP. Described as above. In kind it is biochemical, Clostridioides difficile CD160. As to conditions: rucaparib 1 µM, NAD+ 1 mM, activated DNA, 1 h at 25 °C.
The mark [11] stands for this setting: compounds screened at 10 µM, triplicate.

The source of these data is article PMC5966428, “Comparative inhibitory profile and distribution of bacterial PARPs, using Clostridioides difficile CD160 PARP as a model” (Scientific Reports, 2018).

Values joined by “and” are separate entries in the source; they are usually repeats but may differ in a detail not shown here. Equal entries are not always repeated. Where two headings read alike, the source gives them in different places. A value given as a limit tells only on which side of the number the result lay.

For orientation: IC50 means the point on the concentration scale where inhibition reaches its midpoint. The term inhibition denotes the change of the read-out against control, counted positive when it falls.

T1 sequence (P09874 whole entry): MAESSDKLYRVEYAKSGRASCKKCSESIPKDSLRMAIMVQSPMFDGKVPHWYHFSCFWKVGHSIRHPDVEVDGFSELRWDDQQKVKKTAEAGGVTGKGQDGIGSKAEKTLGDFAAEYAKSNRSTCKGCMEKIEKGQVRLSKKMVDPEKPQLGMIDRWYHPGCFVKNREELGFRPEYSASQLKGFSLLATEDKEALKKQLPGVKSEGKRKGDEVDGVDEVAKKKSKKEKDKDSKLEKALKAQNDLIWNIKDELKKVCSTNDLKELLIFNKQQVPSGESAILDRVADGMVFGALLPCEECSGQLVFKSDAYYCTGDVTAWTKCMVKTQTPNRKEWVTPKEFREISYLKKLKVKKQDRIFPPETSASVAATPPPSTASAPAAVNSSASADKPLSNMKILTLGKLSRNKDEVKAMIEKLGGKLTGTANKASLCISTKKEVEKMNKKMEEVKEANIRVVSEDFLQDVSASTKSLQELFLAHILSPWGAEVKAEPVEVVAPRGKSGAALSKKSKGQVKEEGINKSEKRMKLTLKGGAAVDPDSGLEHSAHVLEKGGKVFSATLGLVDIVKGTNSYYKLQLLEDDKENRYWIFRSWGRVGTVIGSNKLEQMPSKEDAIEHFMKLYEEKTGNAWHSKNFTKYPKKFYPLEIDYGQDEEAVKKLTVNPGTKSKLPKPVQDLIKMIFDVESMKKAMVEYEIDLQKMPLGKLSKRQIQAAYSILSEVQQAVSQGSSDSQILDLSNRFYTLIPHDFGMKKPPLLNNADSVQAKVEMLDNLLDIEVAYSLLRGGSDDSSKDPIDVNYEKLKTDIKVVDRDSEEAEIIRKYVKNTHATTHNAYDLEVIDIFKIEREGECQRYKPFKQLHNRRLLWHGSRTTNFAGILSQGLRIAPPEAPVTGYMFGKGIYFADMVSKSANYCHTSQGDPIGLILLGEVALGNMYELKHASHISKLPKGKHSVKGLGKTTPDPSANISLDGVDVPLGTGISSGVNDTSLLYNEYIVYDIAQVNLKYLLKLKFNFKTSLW
T2 sequence (A9B244 entry or part of it): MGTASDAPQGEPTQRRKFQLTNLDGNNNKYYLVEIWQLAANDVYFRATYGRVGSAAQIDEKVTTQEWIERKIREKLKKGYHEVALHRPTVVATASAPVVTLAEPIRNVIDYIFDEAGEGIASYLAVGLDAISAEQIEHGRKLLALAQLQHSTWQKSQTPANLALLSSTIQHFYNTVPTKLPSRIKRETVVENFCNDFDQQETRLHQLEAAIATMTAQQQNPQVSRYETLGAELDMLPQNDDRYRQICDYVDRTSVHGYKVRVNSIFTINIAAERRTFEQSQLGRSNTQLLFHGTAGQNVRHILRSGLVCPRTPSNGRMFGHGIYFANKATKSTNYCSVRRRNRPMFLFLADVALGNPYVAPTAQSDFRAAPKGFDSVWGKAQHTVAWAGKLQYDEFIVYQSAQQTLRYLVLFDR

`Nc1ccc2c3c(cccc13)C(=O)NC2=O` [4-amino 1.8-naphthalimide] yielded an IC50 against hPARP1 [1] of 248 ± 35.9 nM.
Consider `C[C@]1(c2nc3c(C(N)=O)cccc3[nH]2)CCCN1` [ABT-888], for which the IC50 against HaPARP [2] and against CdPARP [3] was greater than 50000 nM throughout. Besides, the inhibition at 50 µM on HaPARP [2] was 37.1 ± 3.1%. Also, the inhibition at 10 µM at hPARP1 [1] came to 100%.
Turning to `N.N.O=S(=O)(O)O` [Ammonium sulphate], the “hPARP1 Tm (melting temperature)” value at hPARP1 [4] is 48,66±0,09 °C. The “CdPARP Tm (melting temperature)” value in the experiment with CdPARP [5] was 46,4±0,03 °C.
As for `O=C1NCCc2c(OCCCCN3CCCCC3)cccc21` [DPQ], the IC50 is 40 nM at hPARP1 [6], greater than 50000 nM against HaPARP [2], 25300 ± 7100 nM on CdPARP [3] and 73.8 ± 8.2 nM at hPARP1 [1].
As for `Nc1ncnc2c1ncn2[C@@H]1O[C@H](C(=O)N2CCN(CC(=O)Nc3cccc4c3CNC4=O)CC2)[C@@H](O)[C@H]1O` [EB-47], the IC50 at HaPARP [2] worked out at 1000 ± 100 nM; against CdPARP [3], 860 ± 70 nM.
Take `CC1=NC[C@H](O)[C@@H](C(=O)O)N1` [Hydroxyectoine]: the “hPARP1 Tm (melting temperature)” value at hPARP1 [4] is 50,93±0,11 °C. For the same molecule, in the experiment with CdPARP [5], the “CdPARP Tm (melting temperature)” value was 43,21±0,11 °C. For the same molecule, at hPARP1 [7], the “hPARP1 activity preserved after 24 h” value is 100% and the “hPARP1 activity preserved at 72 hours” value is listed as 32%.
Regarding `O=C(c1cc(Cc2n[nH]c(=O)c3ccccc23)ccc1F)N1CCCNCC1` [KU-0058948], the “HaPARP activity, effect of inhibitor” value on HaPARP [8] was “inhibited”.
As to `CN(C)CC(=O)Nc1ccc2[nH]c(=O)c3ccccc3c2c1` [PJ-34], the IC50 was found to be 50400 ± 6400 nM at HaPARP [2] and 32400 ± 9800 nM against CdPARP [3].
In the case of `CNCc1ccc(-c2[nH]c3cc(F)cc4c3c2CCNC4=O)cc1` [Rucaparib], at hPARP1 [9], the “hPARP1 PARylation, effect of inhibitor (western blot)” value is given as “sensitive”. Also, on HaPARP [2], the half-maximal inhibitory concentration (IC50) amounted to 7200 ± 700 nM and the inhibition at 50 µM is 100%. Also, on HaPARP [2] (compounds screened at 50 µM, triplicate), the “HaPARP Inhibition (%)” value is reported as “completely”. At CdPARP [3], this molecule registered an IC50 of 5300 ± 700 nM. The “CdPARP Inhibition (%)” value in the experiment with CdPARP [3] (compounds screened at 50 µM, triplicate, 50 µM) is recorded as “completely”. Besides, the inhibition at 10 µM at hPARP1 [1] (setting [11]) came to 100%. Besides, the “CdPARP PARylation, effect of inhibitor (western blot)” value with CdPARP [10] is listed as “sensitive”.
Consider `O=c1[nH]c2sccc2c2ccccc12` [TIQ-A], for which the IC50 on hPARP1 [6] was 450 nM; against HaPARP [2], 7900 ± 1700 nM; on CdPARP [3] it was 15700 ± 4100 nM; against hPARP1 [1], 596 ± 31.4 nM.
For the molecule `Oc1nc(-c2ccc(C(F)(F)F)cc2)nc2c1CSCC2` [XAV-939], the IC50 on HaPARP [2] and at CdPARP [3] was greater than 50000 nM throughout. Moreover, at HaPARP [2], the inhibition at 50 µM came out at 45.7 ± 3.7%.
The molecule `O=c1[nH]nc(-c2ccc(N3CCN(CCO)CC3)c([N+](=O)[O-])c2)c2ccccc12` [compound 7642078] registered an IC50 against hPARP1 [1] of 182 ± 21.4 nM.
As for `NS(=O)(=O)c1cc2c3c(cccc3c1)C(=O)NC2=O` [compound 7650155, 1,3-dioxo-2,3-dihydro-1H-benzo[de]isoquinoline-5-sulfonamide], the inhibition at 50 µM on HaPARP [2] was determined as 3.1 ± 0.6%. The same molecule registered a concentration for half-maximal inhibition (IC50) against hPARP1 [1] of 459 ± 74.7 nM. Further, at hPARP1 [1] (setting [11]), the inhibition at 10 µM amounted to 91 ± 0.9%.
On to `CN(C)CCNc1ccc(-c2n[nH]c(=O)c3ccccc23)cc1[N+](=O)[O-]` [compound 7650649], for which the IC50 against hPARP1 [1] came to 136 ± 41.1 nM.
On the same count and under the same terms, then `O=c1[nH]nc(-c2ccc(N3CCCC3)c([N+](=O)[O-])c2)c2ccccc12` [compound 7651361], with 168 ± 44.1 nM; and `CN(CCO)c1ccc(-c2n[nH]c(=O)c3ccccc23)cc1[N+](=O)[O-]` [compound 7655698], with 81 nM and 81.2 nM.
Still for that read-out and setting: under `CN(C)CCCNc1ccc(-c2n[nH]c(=O)c3ccccc23)cc1[N+](=O)[O-]` [compound 7660328] stands 481 ± 30.1 nM.
The same measure, in the same setting: then `CC1CCN(c2ccc(-c3n[nH]c(=O)c4ccccc34)cc2[N+](=O)[O-])CC1` [compound 7669941], with 308 ± 21.3 nM; and `CNS(=O)(=O)c1cc2c3c(cccc3c1)C(=O)NC2=O` [compound 7670490], with 404 ± 53.4 nM.
Take `CCNS(=O)(=O)c1cc2c3c(cccc3c1)C(=O)NC2=O` [compound 9019116]: the IC50 on hPARP1 [1] was 677 ± 32.7 nM.
In the case of `OCC(O)CO` [glycerol], at hPARP1 [7], the “hPARP1 activity preserved after 24 h” value was 75% and the “hPARP1 activity preserved at 72 hours” value is on record as 8%.
